Results from patent publication US20200069805A1, “PHARMACEUTICAL COMPOSITIONS WITH SYNCHRONIZED SOLUBILIZER RELEASE” (Lipocine Inc., priority 2003, published 2020).
Values after ≈ are worked out from the molar mass of the structure shown.

Key:
[1] = cited from earlier work
[2] = Equilibrium aqueous solubility of cilostazol in simulated intestinal fluid with solubilizers; assay type: physicochemical
Description: Solutions of simulated intestinal fluid without enzyme (USP 26, pH 6.8) were prepared over a range of solubilizer concentrations. Excess cilostazol was added and equilibrated with gentle mixing at controlled temperature (37±0.5° C.). The aqueous solutions with excess drug were then filtered ([…] nominal pore size) and the clear filtrate was diluted and assayed by HPLC for cilostazol concentrations.

[3] = immediate release tablet dosage form; high fat meal; cited from earlier work

solubility enhancement of cilostazol ([2]; Cremphor RH40 at 0.05% w/v) [%]	solubility enhancement of cilostazol ([2]; Cremphor RH40 at 1% w/v) [fold]	increase in solubility of cilostazol over its intrinsic aqueous solubility ([2]; d-a-tocopherol polyethylene glycol 1000 succinate at 0.05% w/v) [%]	increase in solubility of cilostazol over its intrinsic aqueous solubility ([2]; d-a-tocopherol polyethylene glycol 1000 succinate at 1% w/v) [fold]	solubility ([2]; simulated intestinal fluid without enzyme (USP 26), fassgf or other biorelevant, thermodynamic from solid, SIF without enzyme pH 6.8, 37 °C, no solubilizer, read-out: intrinsic solubility of cilostazol) [µg/mL]	Compound	equilibrium solubility of the acid addition HCl salt [1]	pKa [1]	water solubility [1]	aqueous solubility at low pH ([1]; low pH, limited by relatively insoluble hydrochloric acid addition salt)	AUC increase [3]	Cmax increase [3]
–	–	–	–	–	COc1ccccc1OCCNCC(O)COc1cccc2[nH]c3ccccc3c12 (centres unmarked) [Carvedilol]	about 1 mg/ml	about 7.6	less than 0.001 mg/ml	less than 1 mg/ml	–	–
~30	~5	~60	~10	6.5 (≈ 17.6 µM)	O=C1CCc2cc(OCCCCc3nnnn3C3CCCCC3)ccc2N1 [cilostazol]	–	–	–	–	about 25%	about 90%
